3 molecules from article PMC6009932, “Small molecule purine and pseudopurine derivatives: synthesis, cytostatic evaluations and investigation of growth inhibitory effect in non-small cell lung cancer A549” (Journal of Enzyme Inhibition and Medicinal Chemistry, 2017) can be followed below.

The melting point is the temperature of the solid-liquid transition.

In series [1] the test system is CFPAC-1 (ductal pancreatic adenocarcinoma). The series can be described thus: Proliferation assay (MTT, 72 h) on CFPAC-1. It counts as cell-based. Particulars: Homo sapiens. The protocol: (§1) Human carcinoma cell lines A549 (lung carcinoma), HeLa (cervical carcinoma), SW620 (colorectal adenocarcinoma, metastatic), and CFPAC-1 (pancreatic cancer, derived from metastatic: liver), normal human lung (WI38) and foreskin (HFF-1) fibroblasts were obtained from the American Type Culture Collection (ATCC). Cells were cultured in humidified atmosphere at 37 °C with 5% CO2. As growth medium, Dulbecco’s modified Eagle medium (DMEM) was used with the addition of foetal bovine serum (10%), L-glutamine (2 mM) and antibiotics: streptomycin (100 µg/ml) and penicillin (100 U/ml).
(§2) Cells were seeded onto 96-well microtiter plates at a seeding density of 3000 cells/well for carcinoma cell lines, and 5000 cells/well for normal human fibroblasts. The next day, cells were treated with test agents in five different concentrations (0.01–100 µM) and further incubated for 72 h. […] Following 72 h incubation, the MTT assay was performed and measured absorbances were transformed into percentage of cell growth as described previously. Results were obtained from three independent experiments. IC50 values were calculated using linear regression analysis and results were statistically analysed by ANOVA, Tukey post-hoc test (p < .05).

The test system of series [2] is SW620 (colorectal adenocarcinoma, metastatic). The series is described as follows: Proliferation assay (MTT, 72 h) on SW620. The format is cell-based. The following applies: Homo sapiens, SW-620. The protocol: as §1, §2
Series [3] concerns HFF-1 normal human foreskin fibroblasts. The series is described as follows: Proliferation assay (MTT, 72 h) on normal foreskin fibroblasts HFF-1. The format is cell-based. Particulars: compounds 11a–e tested in HFF-1 cell line, read-out: IC50 WI38/HFF-1 (HFF-1). As for the experimental part: as §1, §2
Series [4] deals with HeLa (cervical carcinoma). The series can be described thus: Proliferation assay (MTT, 72 h) on HeLa. The format is cell-based. Particulars: Homo sapiens. The protocol: as §1, §2
Another series deals with A549 (lung carcinoma). The series is described as follows: Proliferation assay (MTT, 72 h) on A549. It counts as cell-based. The following applies: Homo sapiens, A549 lung adenocarcinoma. The protocol: as §1, §2
Another series deals with GPLD1. The series is described as follows: Western blot analysis of GPLD1 in A549 cells. The format is cell-based, human. Particulars: A549, 2 × IC50, 48 h. As for the experimental part: (§3) Cells were seeded in 6-well plates in the concentration depending on tested cell line varying from 1 × 10^5 to 2 × 10^5 cells/well. […] Following treatment, cells were lysed with RIPA buffer supplemented with protease and phosphatase inhibitors (Roche). Total proteins (50 µg) were resolved on 10 or 12% polyacrilamide gels, depending on protein size, and transferred onto PVDF membranes that were blocked for 1 h with either 4% BSA or 5% non-fat milk prepared in tris-buffered saline (TBST). Membranes were probed with primary antibodies against GPLD1 (Abcam), PDGFRβ, p-IGF-1Rβ, p-p38 MAPK, and p-NF-κB-p65 from cell signalling technology at 4 °C overnight. The next day, membranes were washed in TBST and probed with horseradish peroxidase-conjugated secondary antibodies goat anti-mouse (Santa Cruz Biotechnology) or goat anti-rabbit (Santa Cruz Biotechnology). Protein bands were visualised using chemiluminescence substrate and ImageQuant LAS 500 (GE Healthcare, Chicago, IL). Following visualisation, protein band density was analysed by Quantity One 1-D Analysis Software (Bio-Rad, Hercules, CA).
For orientation: A western blot detects proteins with antibodies after separation by electrophoresis.

Another series relates to p-NF-κB-p65. The series can be described thus: Western blot analysis of p-NF-κB-p65 in A549 cells. The format is cell-based, human. The following applies: A549, 2 × IC50, 48 h. As for the experimental part: as §3
In the next series the test system is p-p38 MAPK. The series is described as follows: Western blot analysis of p-p38 MAPK in A549 cells. The format is cell-based, human. The following applies: A549, 2 × IC50, 48 h. As for the experimental part:
as §3

The next series deals with A549 cells. The series is described as follows: Annexin V-FITC assay for apoptosis detection. It counts as cell-based, human. The protocol:
Staining of the cells was performed by Annexin-V-FITC Staining kit (Santa Cruz Biotechnology, Dallas, TX) according to the manufacturer’s instructions. Cells were visualised by fluorescent microscope (Olympus) at magnification of 40×.
Further biological evaluations of compound 12b which was identified as a candidate were performed in order to investigate whether its antiproliferative effect in non-small cell lung cancer (A549) could be associated with induction of apoptosis.

A further series relates to PDGFRβ. The series can be described thus: Western blot analysis of PDGFR in A549 cells. The format is cell-based, human. Particulars: A549, 2 × IC50, 48 h. The protocol: as §3
The test system of series [5] is WI38 normal human lung fibroblasts. The series can be described thus: Proliferation assay (MTT, 72 h) on normal lung fibroblasts WI38. Particulars: WI-38, read-out: IC50 WI38/HFF-1 (WI38). The format is cell-based. As for the experimental part:
as §1, §2

The next series relates to p-IGF-1Rβ. The series is described as follows: Western blot analysis of p-IGF-1Rβ in A549 cells. It counts as cell-based, human. Particulars: A549, 2 × IC50, 48 h. As for the experimental part: as §3
The mark [6] stands for this setting: A549, 48 h, 2 × IC50, versus control.

Some results are limits rather than exact numbers.

`Fc1ccccc1-n1cc(Cn2ccc3ccccc32)nn1` [Compound 11d, 1-{[1-(2-Fluorophenyl)-1H-1,2,3-triazol-4-yl]methyl}-1H-indole]: the IC50 in series [1] turned out to be 85.6 µM; in series [2] it was 44.8 µM; in [3] it was 40.4 µM; in series [4] it was 71.2 µM; in the series with A549 (lung carcinoma) it was 51.3 µM.

Molecule `O=c1cc(Cn2cc(Cn3ccc4ccccc43)nn2)c2ccc(O)cc2o1` [Compound 11e, 4-{[4-((1H-Indol-1-yl)methyl)-1H-1,2,3-triazol-1-yl]methyl}-7-hydroxy-2 H-chromen-2-one] displayed a melting point of 155 to 158 °C. In addition, in [1], the IC50 is above 100 µM. In series [2], this molecule registered an IC50 of 68.5 µM. Besides, in series [3], the IC50 is 40 µM. The same molecule gave an IC50 in series [4] of 83 µM. The same molecule gave an IC50 in the series with A549 (lung carcinoma) of 75.4 µM.

As to `Clc1ccc(-n2cc(Cn3cnc4ccccc43)nn2)cc1` [Compound 12b, 1-{[1-(4-chlorophenyl)-1H-1,2,3-triazol-4-yl]methyl}-1H-benzo[d]imidazole], the “expression level of GPLD1 protein” value in the series on GPLD1 is on record as “dramatically reduced”. Further, in the series on p-NF-κB-p65, the “p-NF-κB-p65 subunit expression level” value is reported as “significant reduction”. In addition, the IC50 in series [1] came to 52.6 µM; in series [2], 91.2 µM; in series [4], 42.2 µM; in series [5], 38.1 µM; in the series with A549 (lung carcinoma), 0.79 µM. In addition, the “expression level of p-p38 MAP kinase” value in the series on p-p38 MAPK is “marked decline”. This molecule returned a Secondary necrotic cells in the series with A549 cells (A549, 48 h, 2 × IC50, PI+) of 2.39%. Also, the “Late apoptotic/Primary necrotic cells” value in the series with A549 cells (A549, 48 h, 2 × IC50, PI+/Ann V+) is listed as 19.76%. Moreover, in the series with A549 cells (A549, 48 h, 2 × IC50, PI−/Ann V+), the Early apoptotic cells is listed as 31.14%. In the series on A549 cells (A549, 48 h, 2 × IC50, PI−/Ann V−), this molecule displayed a Viable cells of 46.71%. Further, the “increase in early apoptotic cell population” value in the series with A549 cells (setting [6]) is reported as 30.62%. Besides, the “increase in late apoptotic/necrotic cell population” value in the series with A549 cells (setting [6]) is on record as 19.76%. Besides, in the series on A549 cells (A549 cells), the induction of apoptosis result was “induced apoptosis”. In addition, the “expression of PDGFR” value with PDGFRβ is given as “downregulated”. Further, the “expression of p-IGF-1Rβ” value in the series on p-IGF-1Rβ was “downregulated”.
